# Measurements from US20130338092A1, “COMPOUNDS AND METHODS FOR TARGETING LEUKEMIC STEM CELLS” (The Broad Institute, Inc., priority 2011, published 2013).
# pIC50: −log10 of the molar value. “Also recorded” adds a separate entry of the source. Read-outs that look alike come from different tables or passages of the source.
# Experiments:
# normal HSPCs = assay: Normal HSPC coculture on primary MSC stroma
# Protocol: The material was cleaned, crushed and sequentially passed through 100 and 70 μM filters (Falcon). […] The biotin-labeled cells were spun down, resuspended in 0.5% FBS in PBS, and incubated for 15-30 minutes at 4° C. with agitation with 1 mL of Dynabead M-280 streptavidin-linked magnetic beads per 4 mice. The bead-linked cells were depleted using magnetic separation and rinsed once. The lineage- and CD48-depleted cell fraction was labeled with streptavidin-APC-Cy7 antibody from BD Biosciences and c-kit-APC, Sca-1-FITC, CD48-Pacific Blue, and CD150 PE-Cy7 antibodies from eBioscience. DsRed-positive lineage-Sca-1+c-kit+CD48− HSCs were sorted using a FACS DiVa or FACS ARIA (BD Biosciences).
# A total of 20 μL of 20 μg/mL fibronectin (Millipore) in PBS was added to each well of a 384-well clear-bottomed black tissue-culture treated plate (Corning) and incubated for 30-120 minutes at 33° C. or 37° C. […] The fibronectin solution was removed from each well using a 24-channel wand aspirator; then 30 μL of BMSC solution was added to plate 2000 BMSCs/well. […] Each plate was covered with a sterile rayon breathable membrane (VWR) and plastic lid, and then spun at 500 rpm (approximately 60× gravity) with slow braking. The plates were incubated at room temperature for 60-90 minutes before incubation at 33° C. with 5% CO2 for 3 days prior to HSC addition.
# The sorted HSCs, SLAMs and progenitor cells were resuspended in phenol-red free alpha-MEM with 20% FBS and diluted to 10,000 cells/mL. A total of 20 μL of cell solution containing 200 hematopoietic cells was added to each well using a multichannel pipettor or liquid-dispensing system. Each plate was covered with a sterile rayon breathable membrane (VWR) and plastic lid, and then spun at 500 rpm (approximately 60×gravity) with slow braking. The plates were incubated at room temperature for 60-90 minutes before incubation at 33° C. with 5% CO2 overnight prior to compound or cytokine addition.
# Image analysis was performed using MetaXpress software from MDC and CellProfiler software from the Broad Institute of Harvard and MIT.
# Compound addition and incubation was performed as described for the LSC coculture screen above, but without a media change or readdition of the compound.
# The selected set was screened in 8-point dose against both normal HSPCs with a high number of replicates (6) and LSC-enriched leukemia cells, each cocultured on primary MSCs.
# [1] = system: LSC-enriched leukemia cells (MLL-AF9); assay: Leukemia coculture assay on primary MSC stroma (cobblestoning readout); type: cell-based, murine; conditions: for leukemia-selective activity in coculture vs normal HSPCs: primary MSC stroma
# Protocol: Whole bone marrow were harvested from C57/B16 actin-dsRed mice (006051, Jackson Labs), subjected to red blood cell lysis (Qiagen), then granulocyte-macrophage progenitors (GMPs) were isolated by Fluorescence-activated cell sorting (FACsAria, Becton Dickinson). GMPs were spinfected twice (2500 rpm, 90 min, 37 C) in the presence of mIL3 (10 ng/ml, Peprotech), mIL6 (10 ng/ml, Peprotech), and mSCF (10 ng/ml, Peprotech) with pMSCV-MLL-AF9-Neo virus then transplanted into lethally irradiated C57/B16 recipients. After disease onset, the spleens were harvested and transplanted into sublethally irradiated secondary recipients. Subsequent transplantation of bulk spleen cells from leukemic secondary mice was repeated twice to generate leukemic GMPs from quaternary transplant leukemic mouse bone marrow.
# Long bones and hips from moribund leukemic mice were harvested, cleaned, crushed and sequentially passed through 100 and 70 μM filters (Falcon). The cells were RBC lysed (Qiagen) and stained in PBS+2% FBS (Omega). Antibodies included lineage markers CD4, CD8, Gr1, Mac1, IL-7R, and Ter119 (Caltag), c-kit (17-1172-83, eBioscience), Sca-1 (11-5981-82, eBioscience), CD34 (11-0341-85, eBioscience), and CD16/32 (25-0161-82, eBioscience). Hoechst 33258 (H21491, Invitrogen) was also used, to identify live cells. Cells were sorted on a FacsAria II (Becton Dickinson).
# The humerii, tibiae, ilia, femurs, and spine were isolated from actin-GFP mice (000329, Jackson Lab) crushed using a mortar and pestle, washed in phosphate-buffered saline (PBS) without magnesium and calcium (Gibco) with 0.5% fetal bovine serum (FBS) (HyClone) and filtered through a 70-μm filter. Red blood cell lysis was performed with ammonium-chloride/potassium-chloride (ACK) lysing buffer (Lonza), the cells were resuspended in α-MEM (StemCell Technologies), 20% FBS (HyClone) and 1× Pen-Strep (CellGro), plated in 25 ml in 150-cm^2 tissue-culture flasks (three per mouse), and incubated at 33° C. with 5% CO2. After 2-3 days, the medium was replaced with fresh α-MEM with 20% FBS. After 8-14 days, the cells were rinsed, split by trypsinization (CellGro), pooled, filtered through a 70 μm filter, replated at 3-4 million cells per 150-cm^2 tissue-culture flask, and grown at 33° C. with 5% CO2 for 3-4 days until nearly confluent. The cells were trypsinized, filtered, and resuspended in 0.5% FBS in PBS with biotin-conjugated anti-mouse CD105 antibody (eBioscience) for 15-30 minutes at room temperature. The CD105-labeled cells were incubated with Dynabead M-280 streptavidin-linked magnetic beads (Invitrogen) for 15-30 minutes at 4° C. with agitation and isolated using magnetic separation and rinsed once. The CD105^+ cell fraction was replated at 1-2 million cells per 150-cm^2 tissue-culture flask and incubated at 33° C. with 5% CO2 for 2-3 days.
# The MSCs were trypsinized, filtered, diluted in phenol-red-free alpha-MEM with 20% FBS, and plated (30 μl for a total of 2000 cells per well) on 384-well clear-bottomed black tissue-culture treated plate (3712, Corning) pretreated with fibronectin (Millipore). Plate covers (VWR) were added, the plates were spun and at 500 with slow braking, and the cells were incubated at room temperature for 60-90 minutes before incubation at 33° C. with 5% CO2 for 3 days prior to hematopoietic cell plating. […]
# normal murine HSPCs = assay: Triple coculture (LSCs and HSPCs on primary MSCs), normal HSPCs; conditions: read-out: Normal HSPC* IC50
# Protocol: (§1) As in the original assay approach, treatment of these triple cocultures began one day after hematopoietic cell plating and was assessed 5 days later.
# (§2) An in vitro therapeutic index was determined for each compound, a comparative measure of the potential for anti-LSC efficacy relative to the potential for dose-limiting toxicities to normal HSCs (myeloablation), or to normal progenitors (myelosuppression). Specifically, ratios were created using the IC50s for primary murine HSPCs in triple coculture as the numerator, and the IC50s for primary murine leukemia inhibition in triple coculture as the denominator, toward assessing the potential for HSC harm relative to LSC inhibition.
# MLL-AF9 LSC = assay: Triple coculture (LSCs and HSPCs on primary MSCs), leukemia cells; type: cell-based, murine; conditions: murine LSCs in triple coculture with HSPCs on MSCs
# Protocol: as §1, §2
# [2] = system: normal primary human CD34+ cells; assay: Alamar Blue assay for human progenitor cell toxicity; conditions: for pIC50: read-out: Normal Progenitor* IC50
# Protocol: Normal G-CSF mobilized CD34+ cells (AllCells, LLC, Emeryville, Calif.), normal BM CD34 cells (MSKCC, New York, N.Y.) and cord blood CD34+ cells (New York Blood Center, New York) were previously frozen and thawed out before the proliferation assay was set up in 384-well plates. Briefly, 50 μl of IMDM medium containing 20% FBS (Gemini Bio-Product, West Sacramento, Calif.), 20 ng/ml of recombinant human Kit Ligand (rhKL), 20 ng/ml of rh-Interleukin-3 (rhIL-3), 20 ng/ml of rhG-CSF, 6 units/ml of rhEPO, 10-42-mercaptoethanol, 2 mM glutamine, 50 u/ml penicillin, 50 μg/ml streptomycin, 1,000 viable CD34+ cells in the presence of various doses of Broad compounds (drug-treated group) or 0.1% DMSO (control group) were incubated at 37° C. After 6 days, 5 μl of AlamaBlue (AbD Serotec, Raleigh, N.C.) was added to each well and further incubated overnight. The fluorescence signal was then measured with GeminiXS microplate reader (Molecular Devices, Sunnyvale, Calif.). Effect of small molecules to proliferation of CD34+ cells was reported as Relative fluorescent intensity (Relative Fluorescent Intensity=Fluorescent Intensity (drug-treated)/Fluorescent Intensity (Control).
# Finally, experiments were performed to examine whether BRD7116 or lovastatic acid were likely to cause myelosuppression, a type of deleterious toxicity in patients resulting from harm to normal human hematopoietic progenitor cells. This consideration is especially important as conventional therapies currently used in the clinic have myelosuppressive toxicities that are dose-limiting. To this end, a hematopoietic progenitor assay was employed to compare the effects of BRD7116 and lovastatic acid to effects given by such known myelosuppressive compounds. In this assay, normal primary human CD34^+ cord blood cells were plated with cytokines in suspension, treated with compound for 7 days, and then examined for viability relative to DMSO treated controls.
# [3] = Mus musculus, read-out: Normal IC50, HSPCs on primary MSC stroma, 8-point dose
# [4] = Mus musculus, MLL-AF9, LSCs on primary MSC stroma, 8-point dose, read-out: Leukemia IC50
# [5] = Mus musculus, read-out: Normal IC50, statins (acid form), HSPCs cocultured on primary MSC stroma
# [6] = Mus musculus, MLL-AF9, statins (acid form), LSCs cocultured on primary MSC stroma, read-out: Leukemia IC50
compound,measurement,setting,value
CC[n+]1c(/C=C2\C=C(C)CC(C)(C)C2)oc2ccccc21 [BRD0638],pIC50,normal HSPCs; [3],< 4.70
same,pIC50,[1]; [4],≥ 8.00
CC[n+]1c(/C=C2/C=C(C)CC(C)C2)sc2ccccc21 (stereo not drawn) [BRD1319],pIC50,normal HSPCs; [3],< 4.70
same,pIC50,[1]; [4],≥ 8.00
C[C@@H]1CN([C@@H](C)CO)C(=O)c2cccc(NC(=O)C3CCCCC3)c2O[C@@H]1CN(C)Cc1ccc(C(=O)Nc2ccccc2N)cc1 [BRD9608],pIC50,normal HSPCs; [3],~4.70
same,pIC50,[1]; [4],6.16
Nc1ccn([C@@H]2O[C@H](CO)[C@@H](O)[C@@H]2O)c(=O)n1 [Ara-C],pIC50,normal murine HSPCs; normal murine HSPCs in triple coculture with LSCs on primary MSCs,5.30
same,pIC50,MLL-AF9 LSC,5.60
same,toxicity to hematopoietic progenitor cells,"[2]; 7 days of exposure, viability relative to DMSO",kill progenitors; also recorded: displayed toxicity
same,pIC50,"[2]; normal human hematopoietic progenitors, 7 days",5.60
Celastrol,pIC50,"normal HSPCs; read-out: Normal IC50, HSPCs on primary MSC stroma, 8-point dose",< 4.70
same,pIC50,"[1]; LSCs on primary MSC stroma, 8-point dose, read-out: Leukemia IC50",6.99
COc1cc2c(cc1OC)-c1c(C#N)c(-c3ccc(C)cc3)c(C(=O)c3cccs3)n1CC2 [BRD8404],pIC50,normal HSPCs; [3],< 4.70
same,pIC50,[1]; [4],6.83
CC(C)n1c(/C=C/C(O)CC(O)CC(=O)O)c(-c2ccc(F)cc2)c2ccccc21 (stereo not drawn) [Fluvastatin],pIC50,normal HSPCs; [5],< 4.70
same,pIC50,[1]; [6],7.55
CCOc1ccccc1NC(=O)C(C)Oc1ccc(OC)cc1 (stereo not drawn) [BRD1686],pIC50,normal HSPCs; [3],< 4.70
same,pIC50,[1]; [4],5.85
COc1cccc2c1C(=O)c1c(O)c3c(c(O)c1C2=O)C[C@@](O)(C(C)=O)C[C@@H]3O[C@H]1C[C@H](N)[C@H](O)[C@H](C)O1 [Daunorubicin],pIC50,normal murine HSPCs; Mus musculus,7.30
same,pIC50,"[2]; Homo sapiens, 168 h",7.70
CCC(C)(C)C(=O)O[C@H]1C[C@@H](C)C=C2C=C[C@H](C)[C@H](CC[C@@H]3C[C@@H](O)CC(=O)O3)[C@H]21 [Simvastatin],pIC50,normal HSPCs; [5],< 4.70
same,pIC50,[1]; [6],≥ 7.82
O=C(c1ccccc1)c1cc[n+](Cc2ccccn2)cc1 [BRD1856],pIC50,normal HSPCs; [3],< 4.70
same,pIC50,[1]; [4],6.09
C=C1C(=O)O[C@@H]2[C@H]3O[C@]3(C)CC/C=C(\C)CC[C@@H]12 [Parthenolide],pIC50,normal HSPCs; [3],< 4.70
same,pIC50,[1]; [4],5.12
c1cc(CN2CCCNCCNCCCNCC2)ccc1CN1CCCNCCNCCCNCC1 [AMD3100],leukemia-selective activity in coculture vs normal HSPCs,[1],showed selectivity for LSCs over HSPCs
COc1cc(/C=C/C(=O)N2CCC=CC2=O)cc(OC)c1OC [Piperlongumine],pIC50,"normal HSPCs; Mus musculus, read-out: Normal IC50",~4.70
same,pIC50,"[1]; Mus musculus, MLL-AF9, read-out: Leukemia IC50",6.42
CC(C)c1c(C(=O)Nc2ccccc2)c(-c2ccccc2)c(-c2ccc(F)cc2)n1CC[C@@H](O)C[C@@H](O)CC(=O)O [Atorvastatin],pIC50,normal HSPCs; [5],< 4.70
same,pIC50,[1]; [6],≥ 5.72
same,leukemia-selective activity in coculture vs normal HSPCs,[1],selectively inhibited leukemia cobblestoning
COc1cc2c(cc1O)CC[C@@H]1[C@@H]2CC[C@]2(C)[C@@H](O)CC[C@@H]12 [2-Methoxy estradiol],pIC50,normal HSPCs; [3],< 4.70
same,pIC50,[1]; [4],7.11
same,leukemia-selective activity in coculture vs normal HSPCs,[1],displayed leukemia selectivity
CC(C)c1nc(N(C)S(C)(=O)=O)nc(-c2ccc(F)cc2)c1/C=C/[C@@H](O)C[C@@H](O)CC(=O)O [Rosuvistatin],pIC50,"normal HSPCs; read-out: Normal IC50, statins (acid form), HSPCs cocultured on primary MSC stroma",< 4.70
same,leukemia-selective activity in coculture vs normal HSPCs,[1],selectively inhibited leukemia cobblestoning
same,pIC50,"[1]; statins (acid form), LSCs cocultured on primary MSC stroma, read-out: Leukemia IC50",5.91
C[C@@H]1CN([C@@H](C)CO)C(=O)c2cccc(NC(=O)Nc3ccccc3)c2O[C@@H]1CN(C)Cc1ccc(C(=O)Nc2ccccc2N)cc1 [BRD6708],pIC50,normal HSPCs; [3],< 4.70
same,pIC50,[1]; [4],5.67
COCc1c(C(C)C)nc(C(C)C)c(/C=C/[C@@H](O)C[C@@H](O)CC(=O)O)c1-c1ccc(F)cc1 [Cerivastatin],pIC50,normal HSPCs; [5],< 4.70
same,pIC50,[1]; [6],> 8.00
